According to patent US9801850B2, “Antibacterial agent” (OSAKA UNIVERSITY, priority 2009, dated 2017):

Columns and labels:
[1] = system: MSSA clinical isolate No. 2; assay: MIC, broth microdilution (Example 2, Table 6); assay type: cell-based, Staphylococcus aureus
[2] = system: MSSA clinical isolate No. 5; assay: MIC, broth microdilution (Example 2, Table 6); assay type: cell-based, Staphylococcus aureus
[3] = system: MRSA clinical isolate No. 7; assay: MIC, broth microdilution (Example 2, Table 6); assay type: cell-based, Staphylococcus aureus
[4] = system: MRSA clinical isolate No. 12; assay: MIC, broth microdilution (Example 2, Table 6); assay type: cell-based, Staphylococcus aureus
[5] = system: Bacillus cereus ATCC14579; assay: Antibacterial spectrum MIC (Table 7); assay type: cell-based
Procedure: (§1) Methicillin-susceptible Staphylococcus aureus (MSSA) NCTC8325 and methicillin-resistant Staphylococcus aureus (MRSA) ATCC43300 were used as bacteria. The bacteria of each type were cultured using Mueller-Hinton Broth (MH-broth, Difco) as a medium. Then, the minimum inhibitory concentration (MIC) of each of the EGCG derivatives was measured by a broth microdilution method in accordance with the Clinical and Laboratory Standards Institute (CLSI) guidelines (hereinafter the same).
(§2) First, each of the EGCG derivatives was dissolved in 100% dimethyl sulfoxide (DMSO, Wako Pure Chemical Industries, Ltd.) so that the concentration thereof became 5120 μg/ml. The resultant solution was diluted with DMSO or sterile distilled water so as to prepare two-fold dilution series of antibacterial agent solutions. […] Each of these antibacterial agent solutions was dispensed to wells of a 96-well plate. The concentration of the EGCG derivative in the antibacterial agent solution dispensed to the wells was set to be 10 times as high as the final concentration. On the other hand, the bacteria were cultured in the MH-broth at 37° C. overnight, and the thus-obtained pre-culture solution was diluted with a new MH-broth so that the concentration thereof in the MH-broth became 10^−4 (10^4-fold dilution), thus preparing a bacterial culture solution of about 1×10^5 CFU/ml (CFU: Colony Forming Unit, the number of viable cells). The bacterial culture solution was further added to each well, and the mixture was cultured at 37° C. for 18 hours. The ratio (volume ratio) between the antibacterial agent solution and the bacterial culture solution added to each well was set to 1:9 (the antibacterial agent solution:the bacterial culture solution), and the volume of the mixture of them per well was set to 100 μl in total. The final concentration of the EGCG derivative in the mixture was set to 8 μg/ml to 512 μg/ml, and the number of viable cells in the mixture was set to about 1×10^5 CFU/ml. Then, after the completion of the culture, the MIC was determined. Also, the turbidity (OD600 nm) was measured using a plate reader so as to identify minor differences.
(§3) Regarding the respective type strains shown in Tables 7 and 8 below, the MIC measurement was performed using the antibacterial agent solutions of Example 2 in the same manner as described in Section (2) of Example 1, except for the following. The antibacterial agent solutions were prepared by dissolving the EGCG derivatives of Example 2 in 100% DMSO and then diluting the resultant mixtures with sterile distilled water. The respective strains were derived from ATCC or NCTC. As Moraxella catarrhalis and Aspergillus fumigatus, clinical isolates thereof without an acquired resistance mechanism were used. For nutrient-rich bacteria, namely, Streptococcus pneumoniae ATCC49619, Streptococcus pyogenes ATCC19615, Streptococcus agalactiae ATCC13813, Moraxella catarrhalis, and Haemophilis influenzae ATCC49766, Strepto Haemo supplement (Eiken Chemical Co., Ltd.) was added to media for culturing them. The MIC measurement with respect to fungi was carried out by a broth microdilution method using a RPMI1640/MOPS (pH 7.0) medium in accordance with CLSI guidelines. About 2×10^3 cells/ml of fungi were inoculated to the medium. After the culture at 35° C. for 24 to 48 hours, the MIC was determined. Also, regarding the antibacterial agent solution of Comparative Example 2, the MIC was measured in the same manner.

[6] = system: Bacillus subtilus ATCC6051; assay: Antibacterial spectrum MIC (Table 7); assay type: cell-based
Procedure: as §1, §2, §3

[7] = system: Enterococcus faecalis ATCC29212; assay: Antibacterial spectrum MIC (Table 7); assay type: cell-based
Procedure: as §1, §2, §3

[8] = system: Klebsiella oxytoca ATCC8724; assay: Antibacterial spectrum MIC (Table 7); assay type: cell-based
Procedure: as §1, §2, §3

[9] = system: Micrococcus lutus ATCC9341; assay: Antibacterial spectrum MIC (Table 7); assay type: cell-based
Procedure: as §1, §2, §3

Moraxella catarrhalis = assay: Antibacterial spectrum MIC (Table 7); assay type: cell-based; conditions: Moraxella catarrhalis clinical isolate, Strepto Haemo supplement
Procedure: as §1, §2, §3

Neisseria meningitidis = assay: Antibacterial spectrum MIC (Table 7); assay type: cell-based
Procedure: as §1, §2, §3

[10] = system: Staphylococcus aureus NCTC8325; assay: Antibacterial spectrum MIC (Table 7); assay type: cell-based
Procedure: as §1, §2, §3

[11] = system: Stenotrophomonas maltophilia ATCC13637; assay: Antibacterial spectrum MIC (Table 7); assay type: cell-based
Procedure: as §1, §2, §3

[12] = system: Streptococcus pneumoniae ATCC49619; assay: Antibacterial spectrum MIC (Table 7); assay type: cell-based; conditions: Strepto Haemo supplement
Procedure: as §1, §2, §3

[13] = system: Streptococcus pyogenes ATCC19615; assay: Antibacterial spectrum MIC (Table 7); assay type: cell-based; conditions: Strepto Haemo supplement
Procedure: as §1, §2, §3

Aspergillus fumigatus = assay: MIC with respect to fungi, broth microdilution (Table 8); assay type: cell-based; conditions: Aspergillus fumigatus clinical isolate; RPMI1640/MOPS (pH 7.0), 35° C., 24 to 48 hours
Procedure: as §3

[14] = system: Candida albicans ATCC24433; assay: as above; assay type: cell-based; conditions: RPMI1640/MOPS (pH 7.0), 35° C., 24 to 48 hours
Procedure: as §3

[15] = system: Candida glabrata ATCC90030; assay: as above; assay type: cell-based; conditions: RPMI1640/MOPS (pH 7.0), 35° C., 24 to 48 hours
Procedure: as §3

Candida krusei ATCC6258 = assay: as above; assay type: cell-based; conditions: RPMI1640/MOPS (pH 7.0), 35° C., 24 to 48 hours
Procedure: as §3

[16] = system: Candida parapsilosis ATCC22019; assay: as above; assay type: cell-based; conditions: RPMI1640/MOPS (pH 7.0), 35° C., 24 to 48 hours
Procedure: as §3

[17] = system: Candida tropicalis ATCC750; assay: as above; assay type: cell-based; conditions: RPMI1640/MOPS (pH 7.0), 35° C., 24 to 48 hours
Procedure: as §3

[18] = system: Cryptococcus neoformans ATCC90112; assay: as above; assay type: cell-based; conditions: RPMI1640/MOPS (pH 7.0), 35° C., 24 to 48 hours
Procedure: as §3

[19] = system: methicillin-resistant Staphylococcus aureus (MRSA) ATCC43300; assay: MIC, broth microdilution (Example 1); assay type: cell-based; conditions: for MIC: MRSA ATCC43300, MH-broth, 37° C., 18 hours
Procedure: as §1, §2
As Comparative Example 1, the same procedures as in Example 1 were performed, except that unsubstituted EGCG was used as an antibacterial agent instead of the EGCG derivatives of Example 1. Furthermore, as a control, the same procedures as in Example 1 were performed, except that sterile distilled water, 100% DMSO, or 50% DMSO was used instead of the antibacterial agent solutions containing the EGCG derivatives.

Substance | MIC [1] | MIC [2] | MIC [3] | MIC [4] | MIC [5] | MIC [6] | MIC [7] | MIC [8] | MIC [9] | MIC (Moraxella catarrhalis) | MIC (Neisseria meningitidis) | MIC [10] | MIC [11] | MIC [13] | MIC (Aspergillus fumigatus) | MIC [14] | MIC (Candida krusei ATCC6258) | MIC [16] | MIC [17] | MIC [18] | also measured
EGCG-palmitoleate [EGCG-C16E] | 16 mg/L | 16 mg/L | 16 mg/L | 16 mg/L | 16 mg/L | 16 mg/L | 64 mg/L | 64 mg/L | 64 mg/L | 64 mg/L | 16 mg/L | 16 mg/L | 32 mg/L | 64 mg/L | 16 mg/L | 16 mg/L | 16 mg/L | 16 mg/L | 16 mg/L | 8 mg/L | MIC [12]: 16 mg/L; MIC [15]: 16 mg/L
EGCG-stearate [EGCG-C18] | 32 mg/L | 32 mg/L | 32 mg/L | 64 mg/L | 32 mg/L | 32 mg/L | 32 mg/L | 64 mg/L | 64 mg/L | 64 mg/L | 16 mg/L | 32 mg/L | 32 mg/L | 64 mg/L | 32 mg/L | 16 mg/L | 16 mg/L | 16 mg/L | 32 mg/L | 16 mg/L | MIC [19]: 32 mg/L; MIC [15]: 16 mg/L
EGCG-oleate [EGCG-C18E] | 32 mg/L | 32 mg/L | 16 mg/L | 32 mg/L | 32 mg/L | 32 mg/L | >64 mg/L | 64 mg/L | 64 mg/L | 32 mg/L | 16 mg/L | 32 mg/L | 32 mg/L | 64 mg/L | 32 mg/L | 16 mg/L | 16 mg/L | 16 mg/L | 32 mg/L | 16 mg/L | MIC [12]: 16 mg/L; MIC [15]: 16 mg/L
EGCG-α-linoleate [EGCG-C18TE] | 16 mg/L | 16 mg/L | 16 mg/L | 16 mg/L | 32 mg/L | 32 mg/L | 64 mg/L | 64 mg/L | 64 mg/L | 32 mg/L | 16 mg/L | 16 mg/L | 32 mg/L | 64 mg/L | 16 mg/L | 16 mg/L | 16 mg/L | 16 mg/L | 16 mg/L | 8 mg/L | MIC [12]: 16 mg/L
EGCG-linolate [EGCG-C18DE] | 16 mg/L | 16 mg/L | 16 mg/L | 16 mg/L | 16 mg/L | 32 mg/L | 64 mg/L | 64 mg/L | 64 mg/L | 64 mg/L | 16 mg/L | 16 mg/L | 32 mg/L | 64 mg/L | 32 mg/L | 16 mg/L | 16 mg/L | 16 mg/L | 32 mg/L | 8 mg/L | MIC [12]: 16 mg/L
EGCG-dioctanoate [EGCG-C8×2] | 16 mg/L | 16 mg/L | 16 mg/L | 16 mg/L | 16 mg/L | 32 mg/L | 64 mg/L | 64 mg/L | 64 mg/L | 32 mg/L | 16 mg/L | 16 mg/L | 32 mg/L | 32 mg/L | 32 mg/L | 32 mg/L | 16 mg/L | 16 mg/L | 32 mg/L | 16 mg/L | MIC [12]: 16 mg/L; MIC [15]: 16 mg/L
EGCG-palmitate [EGCG-C16] | 16 mg/L | 16 mg/L | 16 mg/L | 16 mg/L | 16 mg/L | 16 mg/L | 16 mg/L | 64 mg/L | 64 mg/L | 64 mg/L | 16 mg/L | 16 mg/L | 32 mg/L | 64 mg/L | 32 mg/L | 32 mg/L | 16 mg/L | 16 mg/L | 32 mg/L | 8 mg/L | MIC [19]: 8 mg/L; inhibition of propagation (MIC, turbidity OD600 nm) ([19]; MRSA, FIG. 1 and Table 3): remarkable propagation-inhibiting effect; MIC [12]: 16 mg/L; MIC [15]: 16 mg/L
